# In US20210128537A1, “T-TYPE CALCIUM CHANNEL MODULATORS AND METHODS OF USE THEREOF” (Praxis Precision Medicines, inc., priority 2016, published 2021):
# Key:
# post-SE rats [1] = assay: Forced swim test in post-SE rats; assay type: in vivo, rat; settings: Z944 60 mg/kg/day for 4 weeks, p<0.05
# Procedure: (§1) All behavioural tests were performed in a light-controlled (˜110 lux), closed, quiet and clean room in the. Behavioural testing was performed in a blinded manner to the treatment groups. All of the behavioural tests were video recorded for future analysis. OF, EPM and MWM sessions were filmed using a digital camera mounted above the centre of the arena, which was connected to a computer for the recording and objective analysis of digitized behavioural tests (EthoVision 3.0.15, Noldus). The first behavioural test was performed one week after the last EEG recording. The different behavioural tests/session were performed 24 hours apart from each other. All tests were scored by an experienced observer who was blind to the experimental conditions of the animals.
# The FST was performed in a clear Plexiglas cylinder (50 cm long×30 cm diameter) filled with water (25±1° C.). The FST was divided into a 15-min training session and a 5-min test session performed 24 h later, as previously described. Immobility time and swimming time were analysed.
# fully kindled rats = assay: Amygdala kindling model, anti-seizure testing in fully kindled rats; assay type: in vivo, rat
# Procedure: Animals were implanted with EEG recording electrodes and with a stimulating bipolar electrode in the left basolateral amygdaloid nucleus using the coordinates AP±3.0 mm, ML±5.9 mm, DV±6.0 mm. The after discharge threshold (ADT) for each animal was determined by administering a stimulation (frequency=60.1 Hz; duration=1000 μs) at one minute intervals until a seizure was clicited. The amplitude of the stimulation was started at 0.02 mA with increments of 0.02 mA; the stimulations were stopped when the animal experienced a seizure of ≥6 second duration, or if the amplitude of 0.40 mA was reached without the occurrence of a seizure. […] Kindling was performed twice a day for five days per week with an endpoint of 30 stimulations or until the animal presented five class V seizures (referred to as fully kindled). The seizure severity was classified from 0 (less severe) to V (most severe) according to the Racine Scale (Racine, 1972b). Sham kindled animals were handled the same way as the kindled animals, although no electrical stimulation was applied. An animal is classified as fully kindled once it has experienced 5 class V seizures.
# Drug testing was performed twice a week until all animals had received each of the seven treatments, Z944 (5 mg/kg, 10 mg/kg, 30 mg/kg and 100 mg/kg), vehicle (10% DMSO/90% Na^+-CMC or CBZ vehicle 20% DMSO/40% propylene glycol/40% saline), ETX (100 mg/kg) or CBZ (30 mg/kg). Prior to drug testing each day, animals were subjected to a maximum of three pre-drug stimulations 30 minutes apart. The animals qualified for testing on that particular day if a class IV or V seizure was elicited in at least 2 out of 3 pre-drug stimulations. Stimulations consisted of a 1 second train of 1 ms biphasic square wave pulses at a frequency of 60 Hz with current amplitude based on each animal ADT that elicited a seizure. Thirty minutes after the last pre-drug stimulation, the animals received an IP injection of one of the seven treatments in a randomized manner at a dose volume of 5 ml/kg. Six post-drug stimulations were administered to each animal, the first stimulation was given 15 minutes post drug injection (to allow brain penetration of the drugs) and the following five stimulations were delivered in 30 minutes intervals thereafter with the seizure class elicited being recorded after each post-drug stimulation. The duration of the primary and total seizures, if any, were recorded. An investigator blinded to the drug treatment analyzed all EEG recordings. Primary after discharge is the duration of the seizure elicited from the kindling stimulation. Total after discharge is the total seizure duration including any secondary seizures that occur after the primary after discharge. Primary after discharge duration and total seizure duration were recorded and averaged for the 6 post-drug stimulations.
# Animal weight and behaviour when handled were monitored for the duration of the experimental period. Additionally, animals were assessed by observation for any adverse effects of drugs on grooming, fur appearance, gait, and excretion.
# Naïve wistar rats = assay: Drug tolerability study, seven-day osmotic pump; assay type: in vivo, rat
# Procedure: Pumps were filled with either Z944 to deliver a daily dose of 60 mg/kg, levetiracetam to deliver a daily dose of 200 mg/kg or vehicle. For the drug tolerability study, osmotic pumps continuously either Z944, levetiracetam or vehicle for 7 days and for the post-SE study osmotic pumps delivered continuously the different treatments for 28 days.
# The neurological side effects of the prolonged administration of Z944 and levetiracetam were assessed over one-week. Naïve wistar rats aged 11 weeks were implanted with a seven-day osmotic pump with Z944 (60 mg/kg/day, n=6), levetiracetam (200 mg/kg/day, n=5) and vehicle (n=6). The animals were evaluated twice per day, morning and afternoon, for side effects from the day of pump implantation to 8 days after.
# hCaV3.2 = hCaV3.2 (Homo sapiens, UniProt O95180); assay: Inactivated channel state FLIPR assay, concentration-dependent inhibition of hCaV3.2; assay type: cell-based; settings: logistic function fit
# hCaV3.2, sequence (O95180 whole entry): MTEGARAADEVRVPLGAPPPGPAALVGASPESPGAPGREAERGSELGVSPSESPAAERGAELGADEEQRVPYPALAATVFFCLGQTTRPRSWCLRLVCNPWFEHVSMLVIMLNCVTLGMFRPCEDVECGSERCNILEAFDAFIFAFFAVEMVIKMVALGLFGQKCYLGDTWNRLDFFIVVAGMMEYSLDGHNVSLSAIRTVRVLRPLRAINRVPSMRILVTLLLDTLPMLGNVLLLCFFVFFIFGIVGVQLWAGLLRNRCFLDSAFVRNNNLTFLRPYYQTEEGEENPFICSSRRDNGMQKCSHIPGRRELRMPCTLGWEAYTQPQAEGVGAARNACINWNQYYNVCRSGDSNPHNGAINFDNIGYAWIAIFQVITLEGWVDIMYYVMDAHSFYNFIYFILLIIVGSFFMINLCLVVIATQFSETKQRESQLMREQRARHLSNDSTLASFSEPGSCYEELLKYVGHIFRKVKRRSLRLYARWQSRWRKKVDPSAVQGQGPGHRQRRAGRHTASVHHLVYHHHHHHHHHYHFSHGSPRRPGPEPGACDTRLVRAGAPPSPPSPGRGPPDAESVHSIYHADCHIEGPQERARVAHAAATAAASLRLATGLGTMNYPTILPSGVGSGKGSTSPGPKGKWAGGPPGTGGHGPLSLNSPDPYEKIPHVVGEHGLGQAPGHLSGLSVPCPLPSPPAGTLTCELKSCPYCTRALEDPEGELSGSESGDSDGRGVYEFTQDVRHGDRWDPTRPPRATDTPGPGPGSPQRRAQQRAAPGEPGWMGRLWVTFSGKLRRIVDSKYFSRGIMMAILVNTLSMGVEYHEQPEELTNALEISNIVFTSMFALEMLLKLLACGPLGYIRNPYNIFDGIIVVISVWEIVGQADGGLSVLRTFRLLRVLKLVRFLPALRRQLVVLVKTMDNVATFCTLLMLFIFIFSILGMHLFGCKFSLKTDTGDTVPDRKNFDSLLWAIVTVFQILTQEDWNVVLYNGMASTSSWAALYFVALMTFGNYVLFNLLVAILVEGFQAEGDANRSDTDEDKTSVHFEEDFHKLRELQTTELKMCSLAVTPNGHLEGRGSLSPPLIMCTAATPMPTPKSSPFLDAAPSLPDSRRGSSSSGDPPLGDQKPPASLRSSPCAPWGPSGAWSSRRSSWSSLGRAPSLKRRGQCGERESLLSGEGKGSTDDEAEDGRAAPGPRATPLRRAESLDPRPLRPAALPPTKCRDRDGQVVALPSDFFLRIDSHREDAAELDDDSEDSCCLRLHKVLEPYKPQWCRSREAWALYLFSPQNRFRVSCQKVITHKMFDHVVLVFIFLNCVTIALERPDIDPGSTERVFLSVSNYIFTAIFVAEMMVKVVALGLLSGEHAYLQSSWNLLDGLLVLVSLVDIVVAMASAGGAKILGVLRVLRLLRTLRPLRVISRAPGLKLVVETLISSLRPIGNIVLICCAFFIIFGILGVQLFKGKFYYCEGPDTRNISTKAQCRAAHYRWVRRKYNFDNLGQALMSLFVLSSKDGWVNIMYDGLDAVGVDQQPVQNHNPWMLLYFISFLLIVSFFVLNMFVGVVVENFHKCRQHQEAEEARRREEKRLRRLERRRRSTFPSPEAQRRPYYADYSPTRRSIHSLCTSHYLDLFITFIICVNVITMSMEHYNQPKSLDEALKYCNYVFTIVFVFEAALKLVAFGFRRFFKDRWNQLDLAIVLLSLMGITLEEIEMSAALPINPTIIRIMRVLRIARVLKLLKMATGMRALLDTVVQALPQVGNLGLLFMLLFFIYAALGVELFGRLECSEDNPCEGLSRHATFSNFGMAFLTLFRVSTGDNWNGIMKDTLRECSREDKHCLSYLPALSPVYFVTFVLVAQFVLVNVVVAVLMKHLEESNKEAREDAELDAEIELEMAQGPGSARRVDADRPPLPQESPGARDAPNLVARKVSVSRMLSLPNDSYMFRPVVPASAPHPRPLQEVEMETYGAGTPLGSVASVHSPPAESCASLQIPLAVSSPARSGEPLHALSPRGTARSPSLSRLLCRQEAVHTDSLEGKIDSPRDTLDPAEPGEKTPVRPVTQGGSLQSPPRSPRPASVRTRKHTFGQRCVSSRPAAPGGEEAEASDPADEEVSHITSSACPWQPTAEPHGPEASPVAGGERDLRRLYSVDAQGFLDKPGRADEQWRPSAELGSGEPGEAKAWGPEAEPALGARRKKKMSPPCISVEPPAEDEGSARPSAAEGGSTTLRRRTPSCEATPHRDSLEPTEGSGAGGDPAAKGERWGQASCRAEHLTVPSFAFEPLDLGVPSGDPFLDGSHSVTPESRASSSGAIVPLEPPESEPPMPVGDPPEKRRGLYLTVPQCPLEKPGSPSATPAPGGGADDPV
# post-SE rats [2] = assay: Sucrose preference test in post-SE rats; assay type: in vivo, rat; settings: Z944 60 mg/kg/day for 4 weeks, p<0.05
# Procedure: as §1
# The SPT was used to assess depressive-like behaviour. The animals remained to stay in their same home cage. One hour before the start of the test, the animals were given up to 0.5 ml of the testing 2% sucrose to ensure that the animals would drink the sucrose solution. The animals were presented with two bottles, one filled with water and the other one filled with 2% sucrose in water for 24 hours. On both tests, bottle position was randomised to avoid position preference. Total fluid intake and percentage preference for sucrose were recorded.
# [3] = tested on: T-type calcium channels (CaV3.1, CaV3.2, CaV3.3) mRNA; assay: Quantitative PCR of T-type Ca2+ channel expression in the hippocampus of post-SE rats; assay type: in vivo, rat; settings: 9 weeks after treatment ended
# Procedure: RNA was extracted using the RNeasy Mini Kit (QIAGEN), DNA elimination columns were used to remove any genomic DNA contamination in accordance with the manufacturer's protocol. RNA concentration and purity was determined using spectrophotometric readings with the NanoDrop 3000 spectrophotometer (NanoDrop Technologies). 1 μg RNA was reverse transcribed to cDNA using the Omniscript RT Kit (QIAGEN) following the manufacturer's protocol. T-type Ca^2+ channel expression was assessed using quantitative polymerase chain reaction (qPCR). Each 10 μl reaction volume consisted in 25 ng of cDNA, 5 μl of TaqMan Universal PCR Master Mix 2× and custom designed TaqMan using catalogued 20× Taqman gene expression assays for CaV3.1 (Assay ID Rn00581051_m1, Applied Biosystems), CaV3.2 (Assay ID Rn01460348_m1, Applied Biosystems), CaV3.3 (Assay ID Rn01505208_m1, Applied Biosystems). Relative mRNA expression of the CaV3.1, CaV3.2 and CaV3.3 were compared to the geometric average of the mRNA levels of the housekeeping genes Rplp1 (Rn03467157_gH), Rpl13a (Rn00821946_g1) and Ywhaz (Assay ID: Rn00755072_m1). Analysis was performed using the ΔΔCT method. The average of the relative expression levels was compared between the different treatment groups.
compound,measurement,setting,value
CC(C)(C)NC(=O)CN1CCC(CNC(=O)c2cc(F)cc(Cl)c2)CC1 [Z944],forced swim test immobility time,post-SE rats [1],vehicle had an increased immobility time when compared to both sham groups and post-SE+Z944 group
same,seizure class elicited (Racine scale),"fully kindled rats; IP, Z944 5, 10, 30, 100 mg/kg, CBZ 30 mg/kg, compared to vehicle",does not suppress seizures
same,primary after discharge,"fully kindled rats; IP, all four doses of Z944, ETX 100 mg/kg, CBZ 30 mg/kg, compared to vehicle (p>0.5)",did not affect the primary after discharge
same,adverse effects (sedation scale 0-4) compared to vehicle,"fully kindled rats; Z944 100 mg/kg, CBZ 30 mg/kg IP, p<0.01",significantly higher adverse effects
same,"adverse effects (sedation scale 0-4), dose dependence",fully kindled rats; Z944 5 to 100 mg/kg IP,dose dependent
same,neurological side effects in comparison to vehicle,"Naïve wistar rats; 60 mg/kg/day osmotic pump, day 2 to day 5",transient and minimal side effects
same,neurological side effects compared to levetiracetam treated animals,"Naïve wistar rats; Z944 60 mg/kg/day vs levetiracetam 200 mg/kg/day, day 2 and 3, p<0.05",significantly reduced neurological side effects
same,slope of the concentration-inhibition curve,hCaV3.2,1.5
same,sucrose preference,post-SE rats [2],vehicle had a reduced sucrose preference compared to both sham groups and post-SE+Z944 group
same,mRNA expression of T-type calcium channels in the hippocampus,[3],Reduced mRNA Expression
